Laboratory results from US11891352B2, “Aminomethyl-functionalized denatonium derivatives, their preparation and use” (Julius-Maximilians-Universitaet Wuerzburg, priority 2018, dated 2024).

Assay: Stability of amino-functionalized denatonium derivatives (LC/MS measurements)
Type: physicochemical
Description: The decomposition of the substance is illustrated as follows: […]

stability: not stable
Structure (SMILES): CC[N+](CC)(CC(=O)Nc1c(C)cccc1C)Cc1ccc(N)cc1 [derivative (1)]
